Reference: ChEMBL document CHEMBL3580584, “Antibacterial Balsacones J-M, Hydroxycinnamoylated Dihydrochalcones from Populus balsamifera Buds” (J Nat Prod, 2015)
pIC50: −log10 of the molar value.

Test system: Staphylococcus aureus
Test: Antibacterial activity against Staphylococcus aureus ATCC 25923 assessed as growth inhibition after 24 hrs by microdilution method
Assay type: functional, organism-based

| Compound | pIC50 (Staphylococcus aureus, ATCC 25923, 24 h) | pIC50 |
| --- | --- | --- |
| O=C(N[C@H](CO)[C@H](O)c1ccc([N+](=O)[O-])cc1)C(Cl)Cl [CHLORAMPHENICOL] | 6.37 | – |
| GENTAMICIN | – | 8.00 |
